Experimental data as given in paper PMC11239673, “Structural basis for the bi-specificity of USP25 and USP28 inhibitors” (EMBO Reports, 2024).
Substitutions are numbered along the chain they refer to. Values joined by “and” are separate entries in the source; they are usually repeats but may differ in a detail not shown here. Identical values can stand only once. Like-named read-outs stand apart in the source and are kept apart here.

Tests used:
Assay type in all cases: biochemical
USP28Δtip WT = molecular target: T1, USP28Δtip WT (Homo sapiens, UniProt Q96RU2, INS458SGSG); experiment: Ub-Rho110 dose–response assay, USP28Δtip wt
T1 sequence (Q96RU2 with tags, fused parts or gaps INS458SGSG): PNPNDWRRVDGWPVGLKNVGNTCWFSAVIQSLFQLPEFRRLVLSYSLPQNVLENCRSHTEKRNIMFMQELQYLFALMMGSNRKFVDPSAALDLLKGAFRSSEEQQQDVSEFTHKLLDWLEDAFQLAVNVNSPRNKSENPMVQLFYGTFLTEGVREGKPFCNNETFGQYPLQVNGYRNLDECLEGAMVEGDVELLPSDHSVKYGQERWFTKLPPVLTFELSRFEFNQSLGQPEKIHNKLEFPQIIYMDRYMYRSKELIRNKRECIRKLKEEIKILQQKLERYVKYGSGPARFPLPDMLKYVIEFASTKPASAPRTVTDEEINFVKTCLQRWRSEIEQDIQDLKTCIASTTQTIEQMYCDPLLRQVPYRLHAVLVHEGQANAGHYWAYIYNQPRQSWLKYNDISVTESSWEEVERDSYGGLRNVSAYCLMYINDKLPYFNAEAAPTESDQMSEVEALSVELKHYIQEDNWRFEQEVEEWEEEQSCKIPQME

USP28Δtip H261A = molecular target: T2, USP28Δtip H261A (Homo sapiens, UniProt Q96RU2, H261A/INS458SGSG); experiment: Ub-Rho110 dose–response assay, USP28Δtip H261A; conditions: for IC50: USP28 - H261A
T2 sequence (Q96RU2 with tags, fused parts or gaps H261A/INS458SGSG): T1 sequence (Q96RU2 with tags, fused parts or gaps INS458SGSG)

USP28Δtip L264F = molecular target: T3, USP28Δtip L264F (Homo sapiens, UniProt Q96RU2, INS458SGSG/L264F); experiment: Ub-Rho110 dose–response assay, USP28Δtip L264F; conditions: for IC50: USP28 - L264F
T3 sequence (Q96RU2 with tags, fused parts or gaps L264F/INS458SGSG): T1 sequence (Q96RU2 with tags, fused parts or gaps INS458SGSG)

USP28Δtip Q315A = molecular target: T4, USP28Δtip Q315A (Homo sapiens, UniProt Q96RU2, INS458SGSG/Q315A); experiment: Ub-Rho110 dose–response assay, USP28Δtip Q315A; conditions: for IC50: USP28 - Q315A
T4 sequence (Q96RU2 with tags, fused parts or gaps Q315A/INS458SGSG): T1 sequence (Q96RU2 with tags, fused parts or gaps INS458SGSG)

USP28Δtip E366A = molecular target: T5, USP28Δtip E366A (Homo sapiens, UniProt Q96RU2, E366A/INS458SGSG); experiment: Ub-Rho110 dose–response assay, USP28Δtip E366A; conditions: for IC50: USP28 - E366A
T5 sequence (Q96RU2 with tags, fused parts or gaps E366A/INS458SGSG): T1 sequence (Q96RU2 with tags, fused parts or gaps INS458SGSG)

USP28Δtip E366Q = molecular target: T6, USP28Δtip E366Q (Homo sapiens, UniProt Q96RU2, E366Q/INS458SGSG); experiment: Ub-Rho110 dose–response assay, USP28Δtip E366Q; conditions: for IC50: USP28 - E366Q
T6 sequence (Q96RU2 with tags, fused parts or gaps E366Q/INS458SGSG): T1 sequence (Q96RU2 with tags, fused parts or gaps INS458SGSG)

USP25Δtip Q322A = molecular target: T7, USP25Δtip Q322A (Homo sapiens, UniProt Q9UHP3, DEL465-537/INS464GSGSGS/Q322A); experiment: Ub-Rho110 dose–response assay, USP25Δtip Q322A
T7 construct: 6xHis or thioredoxin-6xHis (N, cleaved yes); made in house; host or cells: E. coli BL21star (DE3)
T7 sequence (Q9UHP3 with tags, fused parts or gaps Q322A/DEL465-477/P478G/DEL482-535/A536G/P537S limits assumed): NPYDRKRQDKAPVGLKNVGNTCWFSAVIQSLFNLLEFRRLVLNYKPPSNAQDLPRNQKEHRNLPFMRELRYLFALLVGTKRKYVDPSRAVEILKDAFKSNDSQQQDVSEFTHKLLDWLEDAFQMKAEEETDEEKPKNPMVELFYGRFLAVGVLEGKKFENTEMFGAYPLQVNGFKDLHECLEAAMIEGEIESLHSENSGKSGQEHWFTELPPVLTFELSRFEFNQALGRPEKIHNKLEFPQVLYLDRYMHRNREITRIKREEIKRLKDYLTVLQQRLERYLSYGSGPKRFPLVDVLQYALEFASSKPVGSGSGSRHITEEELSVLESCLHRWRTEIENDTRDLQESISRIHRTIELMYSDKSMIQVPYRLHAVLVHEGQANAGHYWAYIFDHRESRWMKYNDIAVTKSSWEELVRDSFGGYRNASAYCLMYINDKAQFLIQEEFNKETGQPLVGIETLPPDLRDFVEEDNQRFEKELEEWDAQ

USP25Δtip E373Q = molecular target: T8, USP25Δtip E373Q (Homo sapiens, UniProt Q9UHP3, DEL465-537/E373Q/INS464GSGSGS); experiment: Ub-Rho110 dose–response assay, USP25Δtip E373Q
T8 construct: 6xHis or thioredoxin-6xHis (N, cleaved yes); made in house; host or cells: E. coli BL21star (DE3)
T8 sequence (Q9UHP3 with tags, fused parts or gaps E373Q/DEL465-477/P478G/DEL482-535/A536G/P537S limits assumed): T7 sequence (Q9UHP3 with tags, fused parts or gaps Q322A/DEL465-477/P478G/DEL482-535/A536G/P537S limits assumed) with A166Q, E217Q

[1] = read-out: relative inhibition [%] - USP28 - WT
[2] = mean of replicates, read-out: IC50, mean and SD
[3] = single replicates, read-out: IC50 of each replicate curve (unlabelled line above mean and SD)
[4] = read-out: relative inhibition [%] - USP28 - H261A
[5] = read-out: relative inhibition [%] - USP28 - L264F
[6] = read-out: relative inhibition [%] - USP28 - Q315A
[7] = read-out: relative inhibition [%] - USP28 - E366Q

Cc1ccc2c(N)c(C(=O)NC3CCc4cc(N5CC6CCC(C5)N6)ccc4C3)sc2n1 (stereo not shown) [FT206]
IC50 (USP28Δtip WT; USP28 - WT, single replicates, read-out: IC50 of each replicate curve (unlabelled line above mean and SD)): 0.184 µM and 0.209 µM and 0.213 µM and 0.0889 µM and 0.0911 µM and 0.101 µM | IC50 (USP28Δtip WT; USP28Δtip 20 nM, Ub-Rho110 250 nM, 15 min preincubation, average ± SD, n ≥ 5, read-out: IC50, USP28 variants, WT): 0.15 ± 0.06 µM | inhibition at 11.11 µM (USP28Δtip WT; [1]): 98.6% | inhibition at 33.33 µM (USP28Δtip WT; [1]): 99.3% | inhibition at 100 µM (USP28Δtip WT; [1]): 99.6% | inhibition at […] (USP28Δtip WT; [1]): 97.5% and 91.4% and 73.1% | t-test vs. USP28 WT control - H261A (USP28Δtip H261A): 1.437E-02 | IC50 (USP28Δtip H261A; [2]): 1.37 µM | IC50 (USP28Δtip H261A; [3]): 2.48 µM and 1.42 µM and 1.16 µM and 1.02 µM and 0.771 µM | inhibition at 11.11 µM (USP28Δtip H261A; [4]): 80.8% | inhibition at 33.33 µM (USP28Δtip H261A; [4]): 98.5% | inhibition at 100 µM (USP28Δtip H261A; [4]): 107% | inhibition at […] (USP28Δtip H261A; [4]): 74.8% | t-test vs. USP28 WT control - L264F (USP28Δtip L264F): 2.664E-04 | IC50 (USP28Δtip L264F; [2]): 1.27 µM | IC50 (USP28Δtip L264F; [3]): 1.62 µM and 1.31 µM and 1.61 µM and 0.793 µM and 1.12 µM and 1.15 µM | inhibition at 11.11 µM (USP28Δtip L264F; [5]): 90.1% | inhibition at 33.33 µM (USP28Δtip L264F; [5]): 95.6% | inhibition at 100 µM (USP28Δtip L264F; [5]): 97.8% | inhibition at […] (USP28Δtip L264F; [5]): 74.2% and 44.5% | t-test vs. USP28 WT control - Q315A (USP28Δtip Q315A): 6.868E-03 | IC50 (USP28Δtip Q315A; [2]): 0.36 µM | IC50 (USP28Δtip Q315A; [3]): 0.492 µM and 0.375 µM and 0.444 µM and 0.267 µM and 0.246 µM | inhibition at 11.11 µM (USP28Δtip Q315A; [6]): 96.4% | inhibition at 33.33 µM (USP28Δtip Q315A; [6]): 97.8% | inhibition at 100 µM (USP28Δtip Q315A; [6]): 98.7% | inhibition at […] (USP28Δtip Q315A; [6]): 92.1% and 78.6% and 44.2% | t-test vs. USP28 WT control - E366A (USP28Δtip E366A): 4.894E-04 | IC50 (USP28Δtip E366A; [2]): 17.3 µM | IC50 (USP28Δtip E366A; [3]): 14.5 µM and 15.5 µM and 12.1 µM and 14.2 µM and 25.7 µM and 21.9 µM | inhibition at 100 µM (USP28Δtip E366A; read-out: relative inhibition [%] - USP28 - E366A): 64.6% | t-test vs. USP28 WT control - E366Q (USP28Δtip E366Q): 3.570E-04 | IC50 (USP28Δtip E366Q; [2]): 17.2 µM | IC50 (USP28Δtip E366Q; [3]): 21.3 µM and 17.6 µM and 14.7 µM and 24.4 µM and 11.5 µM and 13.7 µM | inhibition at 11.11 µM (USP28Δtip E366Q; [7]): 34.7% | inhibition at 33.33 µM (USP28Δtip E366Q; [7]): 57.1% | inhibition at 100 µM (USP28Δtip E366Q; [7]): 78.7% | inhibition at 100 µM (USP25Δtip Q322A; inhibitor 100.00 µM, single replicates, read-out: relative inhibition [%] - USP25 - Q322A): 94% | t-test vs. USP25 WT control - Q322A (USP25Δtip Q322A; p value, inhibitor IC50 on USP25 Q322A compared with USP25 WT): 8.787E-03 | inhibition at 11.11 µM (USP25Δtip Q322A; read-out: relative inhibition [%] - USP25 - Q322A, inhibitor 11.11 µM, single replicates): 85.2% | inhibition at 33.33 µM (USP25Δtip Q322A; read-out: relative inhibition [%] - USP25 - Q322A, inhibitor 33.33 µM, single replicates): 88.7% | t-test vs. USP25 WT control - E373Q (USP25Δtip E373Q; p value, inhibitor IC50 on USP25 E373Q compared with USP25 WT): 8.243E-06 | inhibition at 100 µM (USP25Δtip E373Q; read-out: relative inhibition [%] - USP25 - E373Q, inhibitor 100.00 µM, single replicates): 48.3%
